Reference: patent US20250179055A1, “Substituted 2-(pyrrolidine-3-yl)acetic acid derivative, preparation method and use thereof” (INNOVSTONE THERAPEUTICS LIMITED, priority 2023, published 2025)

Key:
serum Lp(a) = experiment: Humanized mouse Lp(a) inhibition test; assay type: in vivo, humanized Lp(a) transgenic mouse; details: blood 8 h after last dose, humanized Lp(a) mice
Experimental: The in vivo pharmacodynamics of the compounds in reducing Lp(a) was evaluated in a humanized Lp(a) transgenic mouse model. Lp(a) mice were obtained by crossing mice expressing humanized apoB-100 with mice expressing humanized apo(a) containing 16 Kringle repeats. Female mice aged 8-9 weeks were selected for the test. Housing conditions: standard light cycle (12 h light/12 h dark), temperature 20-25° C., humidity 40-70%, free access to water and normal diet. is One day before the test, mice were divided into vehicle control group and test article group (n=5/group) according to body weight and baseline plasma Lp(a) concentration. Mice were orally administered with vehicle (normal saline, 10 mL/kg) or test compound (prepared with normal saline to 3 or 0.5 mg/mL, each mouse received 10 mL/kg), once daily (9:00 am) for 3 consecutive days, and blood was collected to determine the change of serum Lp(a). Eight hours after the last dose, 10 μL of blood was collected from the tail vein and transferred to a 1.5 mL centrifuge tube containing 90 μL of normal saline, mixed well, and left to stand on ice for 30 min. The above samples were centrifuged at 4° C., 3000 rpm for 10 min, and the supernatant was collected and placed on ice. The Lp(a) concentration in the supernatant was measured by double-antibody sandwich ELISA using an anti-apo(a) capture antibody and an HRP-conjugated anti-ApoB detection antibody, with TMB for color development. The reaction was stopped with 1 N sulfuric acid, and the OD value was read at 450 nm on a Tecan microplate reader. Inhibition rate was calculated for each dosing group. Inhibition rate (%)=(vehicle control group Lp(a) concentration or self pre-dose Lp(a) concentration post-dose Lp(a) concentration)/vehicle control group Lp(a) concentration or self pre-dose Lp(a) concentration*100.

[1] = biological target: Lp(a) assembly in HepG2 cells overexpressing ApoA protein (Homo sapiens (Human), UniProt P08519); experiment: ELISA assay on screening Lp(a) assembly inhibition; assay type: cell-based; details: HepG2 cells overexpressing ApoA protein, 24 h, ELISA of supernatant
How it was run: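 HepG2 cells overexpressing ApoA treated with diluted compounds for 24 h at 37 °C, 5% CO2; EACA (10 μL of 1.5 M) added before harvesting supernatant. Secreted Lp(a) quantified by sandwich ELISA; IC50 from four-parameter Hill fit of % inhibition versus concentration.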

[2] = 5 mg/kg oral once daily for 3 days

Sequence of Lp(a) assembly in HepG2 cells overexpressing ApoA protein (P08519 20-2040): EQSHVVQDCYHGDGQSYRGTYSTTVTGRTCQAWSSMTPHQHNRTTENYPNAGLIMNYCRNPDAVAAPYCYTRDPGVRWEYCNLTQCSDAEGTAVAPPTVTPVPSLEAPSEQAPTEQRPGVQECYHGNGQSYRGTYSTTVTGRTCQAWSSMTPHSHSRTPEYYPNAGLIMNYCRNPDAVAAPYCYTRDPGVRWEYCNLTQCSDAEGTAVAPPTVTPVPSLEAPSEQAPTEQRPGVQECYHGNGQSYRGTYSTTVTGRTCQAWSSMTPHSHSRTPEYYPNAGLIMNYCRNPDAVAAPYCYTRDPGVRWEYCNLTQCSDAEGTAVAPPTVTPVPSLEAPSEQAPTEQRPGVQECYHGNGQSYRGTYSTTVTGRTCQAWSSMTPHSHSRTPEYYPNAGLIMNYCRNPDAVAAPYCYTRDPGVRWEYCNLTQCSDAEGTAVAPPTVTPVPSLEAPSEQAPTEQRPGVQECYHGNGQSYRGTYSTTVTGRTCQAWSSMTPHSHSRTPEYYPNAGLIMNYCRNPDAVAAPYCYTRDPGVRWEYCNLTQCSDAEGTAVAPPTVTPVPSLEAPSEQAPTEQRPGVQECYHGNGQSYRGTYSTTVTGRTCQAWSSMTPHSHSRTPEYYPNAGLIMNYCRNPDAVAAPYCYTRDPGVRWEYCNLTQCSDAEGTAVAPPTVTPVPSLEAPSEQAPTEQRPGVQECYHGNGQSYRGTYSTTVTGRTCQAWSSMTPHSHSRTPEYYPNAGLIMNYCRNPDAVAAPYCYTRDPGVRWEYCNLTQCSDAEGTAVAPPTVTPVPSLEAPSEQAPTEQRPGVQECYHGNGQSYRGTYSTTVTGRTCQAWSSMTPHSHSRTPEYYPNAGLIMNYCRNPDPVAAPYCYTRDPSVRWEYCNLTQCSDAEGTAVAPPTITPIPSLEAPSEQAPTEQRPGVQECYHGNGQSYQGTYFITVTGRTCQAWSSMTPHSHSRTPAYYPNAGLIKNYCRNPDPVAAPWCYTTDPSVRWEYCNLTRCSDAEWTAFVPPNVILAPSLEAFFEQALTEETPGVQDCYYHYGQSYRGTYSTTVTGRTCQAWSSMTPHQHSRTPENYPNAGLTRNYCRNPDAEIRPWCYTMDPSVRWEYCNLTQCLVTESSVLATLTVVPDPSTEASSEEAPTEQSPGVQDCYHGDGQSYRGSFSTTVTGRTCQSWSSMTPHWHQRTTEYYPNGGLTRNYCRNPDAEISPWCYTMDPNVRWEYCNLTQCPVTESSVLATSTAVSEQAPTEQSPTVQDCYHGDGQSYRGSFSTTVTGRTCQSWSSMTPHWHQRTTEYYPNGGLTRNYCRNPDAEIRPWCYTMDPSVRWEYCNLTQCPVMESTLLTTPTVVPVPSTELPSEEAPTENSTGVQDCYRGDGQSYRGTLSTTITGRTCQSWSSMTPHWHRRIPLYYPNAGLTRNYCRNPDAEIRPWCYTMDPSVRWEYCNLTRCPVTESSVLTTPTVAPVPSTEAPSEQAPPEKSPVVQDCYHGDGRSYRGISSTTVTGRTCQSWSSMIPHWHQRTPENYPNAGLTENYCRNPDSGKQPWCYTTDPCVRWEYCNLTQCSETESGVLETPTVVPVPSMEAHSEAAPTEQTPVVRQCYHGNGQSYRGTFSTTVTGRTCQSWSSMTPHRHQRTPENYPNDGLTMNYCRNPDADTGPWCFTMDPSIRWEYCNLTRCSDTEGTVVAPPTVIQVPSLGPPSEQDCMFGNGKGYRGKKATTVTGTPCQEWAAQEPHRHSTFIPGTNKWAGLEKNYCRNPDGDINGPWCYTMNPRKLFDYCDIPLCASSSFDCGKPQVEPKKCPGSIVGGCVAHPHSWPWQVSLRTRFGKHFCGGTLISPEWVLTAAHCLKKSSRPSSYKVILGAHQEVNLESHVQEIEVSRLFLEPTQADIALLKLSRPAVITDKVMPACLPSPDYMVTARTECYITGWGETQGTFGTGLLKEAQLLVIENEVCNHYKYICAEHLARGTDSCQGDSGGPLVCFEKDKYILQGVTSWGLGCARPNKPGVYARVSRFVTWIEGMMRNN

SMILES	IC50 [1]	Lp(a) Inhibition Rate (serum Lp(a); [2])	Lp(a) Inhibition Rate (serum Lp(a); 30 mg/kg oral once daily for 3 days)
O=C(O)[C@@H](Cc1cccc(CCN(CCOc2cccc(C[C@H](C(=O)O)[C@H]3CCNC3)c2)C(=O)Oc2cccc(C[C@H](C(=O)O)[C@H]3CCNC3)c2)c1)[C@H]1CCNC1 [Compound 162, (S)-3-(3-(2-((3-((S)-2-carboxy-2-((R)-pyrrolidin-3-yl)ethyl)phenethyl)((3-((S)-2-carboxy-2-((R)-pyrrolidin-3-yl)ethyl)phenoxy)carbonyl)amino)ethoxy)phenyl)-2-((R)-pyrrolidin-3-yl)propanoic acid]		79%	
O=C(O)[C@@H](Cc1cccc(OCCN(CCOc2cccc(C[C@H](C(=O)O)[C@H]3CCNC3)c2)C(=O)COc2cccc(C[C@H](C(=O)O)[C@H]3CCNC3)c2)c1)[C@H]1CCNC1 [Compound 113, (2S,2′S)-3,3′-(((((2-(3-((S)-2-carboxy-2-((R)-pyrrolidin-3-yl)ethyl)phenoxy)acetyl)azanediyl)bis(ethane-2,1-diyl))bis(oxy))bis(3,1-phenylene))bis(2-((R)-pyrrolidin-3-yl)propanoic acid)]	1.17 nM	79%	
O=C(O)[C@@H](Cc1cccc(CCN(CCOc2cccc(C[C@H](C(=O)O)[C@H]3CCNC3)c2)C(=O)Cc2cccc(C[C@H](C(=O)O)[C@H]3CCNC3)c2)c1)[C@H]1CCNC1 [Compound 100, (S)-3-(3-(2-((3-((S)-2-carboxy-2-((R)-pyrrolidin-3-yl)ethyl)phenethyl)(2-(3-((S)-2-carboxy-2-((R)-pyrrolidin-3-yl)ethyl)phenoxy)ethyl)amino)-2-oxoethyl)phenyl)-2-((R)-pyrrolidin-3-yl)propanoic acid]	1.12 nM	86%	
[2H]C([2H])(c1cccc(C[C@H](C(=O)O)[C@H]2CCNC2)c1)N(CCOc1cccc(C[C@H](C(=O)O)[C@H]2CCNC2)c1)C(=O)Cc1cccc(C[C@H](C(=O)O)[C@H]2CCNC2)c1 [Compound 193, (S)-3-(3-(2-((2-(3-((S)-2-carboxy-2-((R)-pyrrolidin-3-yl)ethyl)phenoxy)ethyl)((3-((S)-2-carboxy-2-((R)-pyrrolidin-3-yl)ethyl)phenyl)methyl-d2)amino)-2-oxoethyl)phenyl)-2-((R)-pyrrolidin-3-yl)propanoic acid]		88%	
O=C(O)[C@@H](Cc1cccc(CN(Cc2cccc(C[C@H](C(=O)O)[C@H]3CCNC3)c2)C(=O)COc2cccc(C[C@H](C(=O)O)[C@H]3CCNC3)c2)c1)[C@H]1CCNC1 [Compound 95, (2S,2′S)-3,3′-((((2-(3-((S)-2-carboxy-2-((R)-pyrrolidin-3-yl)ethyl)phenoxy)acetyl)azanediyl)bis(methylene))bis(3,1-phenylene))bis(2-((R)-pyrrolidin-3-yl)propanoic acid)]	0.68 nM		95%
[2H]C([2H])(c1cccc(CC(=O)N(CCOc2cccc(C([2H])([2H])[C@H](C(=O)O)[C@H]3CCNC3)c2)Cc2cccc(C([2H])([2H])[C@H](C(=O)O)[C@H]3CCNC3)c2)c1)[C@H](C(=O)O)[C@H]1CCNC1 [Compound 190, (S)-3-(3-(2-((3-((S)-2-carboxy-2-((R)-pyrrolidin-3-yl)ethyl-1,1-d2)benzyl)(2-(3-((S)-2-carboxy-2-((R)-pyrrolidin-3-yl)ethyl-1,1-d2)phenoxy)ethyl)amino)-2-oxoethyl)phenyl)-2-((R)-pyrrolidin-3-yl)propanoic-3,3-d2 acid]		83%	
O=C(O)[C@@H](Cc1cccc(OCCN(CCOc2cccc(C[C@H](C(=O)O)[C@H]3CCNC3)c2)C(=O)Oc2cccc(C[C@H](C(=O)O)[C@H]3CCNC3)c2)c1)[C@H]1CCNC1 [Compound 163, (2S,2′S)-3,3′-((((((3-((S)-2-carboxy-2-((R)-pyrrolidin-3-yl)ethyl)phenoxy)carbonyl)azanediyl)bis(ethane-2,1-diyl))bis(oxy))bis(3,1-phenylene))bis(2-((R)-pyrrolidin-3-yl)propanoic acid)]		81%	
O=C(O)[C@@H](Cc1cccc(CN(CCOc2cccc(C[C@H](C(=O)O)[C@H]3CCNC3)c2)C(=O)Cc2cc(C[C@H](C(=O)O)[C@H]3CCNC3)cs2)c1)[C@H]1CCNC1 [Compound 178, ((S)-3-(5-(2-((3-((S)-2-carboxy-2-((R)-pyrrolidin-3-yl)ethyl)benzyl)(2-(3-((S)-2-carboxy-2-((R)-pyrrolidin-3-yl)ethyl)phenoxy)ethyl)amino)-2-oxoethyl)thiophen-3-yl)-2-((R)-pyrrolidin-3-yl)propanoic acid)]		84%	
O=C(O)[C@@H](Cc1cccc(CC(=O)N(CCOc2cccc(C[C@H](C(=O)O)[C@H]3CCNC3)c2)CCOc2cccc(C[C@H](C(=O)O)[C@H]3CCNC3)c2)c1)[C@H]1CCNC1 [Compound 111, (2S,2′S)-3,3′-(((((2-(3-((S)-2-carboxy-2-((R)-pyrrolidin-3-yl)ethyl)phenyl)acetyl)azanediyl)bis(ethane-2,1-diyl))bis(oxy))bis(3,1-phenylene))bis(2-((R)-pyrrolidin-3-yl)propanoic acid)]	1.02 nM	92%	
O=C(O)[C@@H](Cc1cc(F)cc(CC(=O)N(CCOc2cc(F)cc(C[C@H](C(=O)O)[C@H]3CCNC3)c2)Cc2cc(F)cc(C[C@H](C(=O)O)[C@H]3CCNC3)c2)c1)[C@H]1CCNC1 [Compound 152, (S)-3-(3-(2-((3-((S)-2-carboxy-2-((R)-pyrrolidin-3-yl)ethyl)-5-fluorobenzyl)(2-(3-((S)-2-carboxy-2-((R)-pyrrolidin-3-yl)ethyl)-5-fluorophenoxy)ethyl)amino)-2-oxoethyl)-5-fluorophenyl)-2-((R)-pyrrolidin-3-yl)propanoic acid]	1.26 nM	90%	

Further lines, with some results ahead:

IC50 [1]	SMILES	Lp(a) Inhibition Rate (serum Lp(a); [2])	Lp(a) Inhibition Rate (serum Lp(a); 30 mg/kg oral once daily for 3 days)
1.89 nM	O=C(O)[C@@H](Cc1cccc(CCN(CCOCc2cccc(C[C@H](C(=O)O)[C@H]3CCNC3)c2)C(=O)Cc2cccc(C[C@H](C(=O)O)[C@H]3CCNC3)c2)c1)[C@H]1CCNC1 [Compound 161, (S)-3-(3-(2-((2-((3-((S)-2-carboxy-2-((R)-pyrrolidin-3-yl)ethyl)benzyl)oxy)ethyl)(3-((S)-2-carboxy-2-((R)-pyrrolidin-3-yl)ethyl)phenethyl)amino)-2-oxoethyl)phenyl)-2-((R)-pyrrolidin-3-yl)propanoic acid]	83%	
2 nM	O=C(O)[C@@H](Cc1cccc(CN(CCOc2cccc(C[C@H](C(=O)O)[C@H]3CCNC3)c2)C(=O)Sc2cccc(C[C@H](C(=O)O)[C@H]3CCNC3)c2)c1)[C@H]1CCNC1 [Compound 138, (S)-3-(3-(2-((3-((S)-2-carboxy-2-((R)-pyrrolidin-3-yl)ethyl)benzyl)(((3-((S)-2-carboxy-2-((R)-pyrrolidin-3-yl)ethyl)phenyl)thio)carbonyl)amino)ethoxy)phenyl)-2-((R)-pyrrolidin-3-yl)propanoic acid]	88%	
1.81 nM	COc1cc(CC(=O)N(CCOc2cc(C[C@H](C(=O)O)[C@H]3CCNC3)cc(OC)c2)Cc2cc(C[C@H](C(=O)O)[C@H]3CCNC3)cc(OC)c2)cc(C[C@H](C(=O)O)[C@H]2CCNC2)c1 [Compound 176, (S)-3-(3-(2-((3-((S)-2-carboxy-2-((R)-pyrrolidin-3-yl)ethyl)-5-methoxybenzyl)(2-(3-((S)-2-carboxy-2-((R)-pyrrolidin-3-yl)ethyl)-5-methoxyphenoxy)ethyl)amino)-2-oxoethyl)-5-methoxyphenyl)-2-((R)-pyrrolidin-3-yl)propanoic acid]	78%	
1.26 nM	O=C(O)[C@@H](Cc1cccc(CC(=O)N(CCOc2cccc(C[C@H](C(=O)O)[C@H]3CCNC3)c2)Cc2cc(C[C@H](C(=O)O)[C@H]3CCNC3)cs2)c1)[C@H]1CCNC1 [Compound 177, (S)-3-(3-(2-((2-(3-((S)-2-carboxy-2-((R)-pyrrolidin-3-yl)ethyl)phenoxy)ethyl)((4-((S)-2-carboxy-2-((R)-pyrrolidin-3-yl)ethyl)thiophen-2-yl)methyl)amino)-2-oxoethyl)phenyl)-2-((R)-pyrrolidin-3-yl)propanoic acid]	90%	
